The text below walks through data of patent US20120010264A1, “NOVEL MEDICAMENT FOR TREATING COGNITIVE IMPAIRMENT” (Dainippon Sumitomo Pharma Co., Ltd., priority 2009, published 2012).

SMILES strings stand for the structures. Where two headings read alike, the source gives them in different places.

The nature of data set [1]: Brain delivery property: brain tissue and plasma concentration after oral administration. It counts as in vivo. Conditions: female, 10 mg/kg oral, one portion, C57BL/6J mouse; for Kp: brain and plasma, read-out: Kp value (brain/plasma AUC0-6 hr ratio); for half-life / AUC(0-t): non-fasting; for AUC(0-t): read-out: AUC0-6 hr. As to the method:
Method: Compound A or rosiglitazone (10 mg/kg) was orally administered in one portion to a mouse (C57BL/6J: female, 11 weeks old, 3 mice at each measuring point) under non-fasting condition. Its brain tissue and plasma were sequentially sampled for 6 hours after the administration to measure the concentration of the administered-compound. Based on each mean value of the concentrations in its brain tissue and plasma measured at several time points, each elimination half-life (t1/2) and area under the curve (AUC0-6hr) of the administered-compound were calculated.

For a further data set, the system named is scavenger receptor CD36. Put plainly: CD36 transcription level in microglial cells by real-time RT-PCR. It counts as cell-based. Conditions: 0.5 μM, 24 hours, neonatal rat microglial cells. As to the method:
Microglial cells derived from neonatal rats (Sumitomo Bakelite) were cultured for 24 hours in a culture medium containing Compound A (0.5 μM or 5 μM). Then, total RNA was extracted from the cells, and therewith the transcription levels of scavenger receptor CD36 and glyceraldehyde-3-phosphate dehydrogenase (GAPDH) were measured by real-time RT-PCR to calculate the CD36 transcription level as a value relative to the GAPDH transcription level. In order to compare the CD36 transcription levels treated in the different conditions, CD36 transcription level in the control that was cultured for 24 hours with only DMSO which was used as a solvent in the above cultivation of Compound A was measured, and then the relative ratio of each CD36 transcription level of Compound A per that of the control (=1) was calculated.

Data set [2] has as its system LPS-induced cognitive impairment mouse. Nature of the data set: LPS-induced cognitive impairment model, Y-maze test (alternation behavior). It counts as in vivo. Conditions: LPS i.c.v., percentage of alternation behavior in Y-maze. As to the method:
It is known that lipopolysaccharide (LPS) can experimentally induce an inflammatory condition in brain like in Alzheimer's dementia patients. Thus, LPS-induced model is thought as a good disease model to study cognitive impairment caused by inflammation in Alzheimer's dementia (Neurosci. Res., 61, 113, 2008).
In Example 4-2, 5 μg of LPS (Eschenchia coli 055:B5, SIGMA) was intracerebroventricularly administered to a mouse (Slc:ddY mouse, 4 weeks old, male, Japan SLC, Inc.) in both ventricles, i.e. 2.5 μl of 1 mg/ml LPS was administered to each ventricle. LPS induced cognitive impairment in Y-maze test was appeared 4 days after treatment. (i.e. decrease of alternation behavior). Compound A (10, 30, 100 mg/kg, p.o., n=14-16) or rosiglitazone (1, 3, 10 mg/kg, p.o., n=8) was administered 30 minutes before the LPS administration, and 1, 2, 3 days after the LPS administration, and also 1 hour before the Y-maze test to evaluate the effect for improving cognitive function. 0.5% Methylcellulose solution was used as a solvent of each compound.

The test system of data set [3] is rats with scopolamine-induced cognitive impairment. Put plainly: Scopolamine-induced cognitive impairment model, passive avoidance test. The format is in vivo, rat. Conditions: for Step-through latency: scopolamine 0.5 mg/kg i.p., rat, mean ± standard error, n = 11, up to 300 seconds. The source says: It is known that scopolamine is a muscarinic acetylcholine receptor antagonist which causes memory impairment in animals and human. Thus, in order to evaluate the efficacy of an anti-Alzheimer's drug, a scopolamine-induced cognitive-impairment model is used in many evaluation tests of cognitive function including a passive avoidance test (Eur. J. Pharmacol., 383, 231, 1999). In Example 6, the effect of Compound A and rosiglitazone on cognitive function was studied using a passive avoidance test using rats with scopolamine-induced cognitive impairment.
Compound A (3, 10, 30 mg/kg) or rosiglitazone (1, 3, 10 mg/kg) was orally administered to a rat 60 minutes before training for the passive avoidance test. Scopolamine (0.5 mg/kg) or saline was intraperitoneally administered 30 minutes before the training. In the training period, the rat was put in a bright compartment and was allowed to explore for 10 seconds. Then, a door between the bright compartment and the dark one was opened, and as the rat went into the dark compartment, the door was closed. Three seconds later, the rat was given electroconvulsive shock (0.5 mA, 3 seconds). The passive avoidance response test was carried out 24 hours after the training. The rat was put in the bright compartment and was monitored to record the time that the rat stayed in the bright compartment (step-through latency) for up to 300 seconds. Dunnett's multiple comparison test (two-sided significance level 5%) was carried out to compare the step-through latency between the scopolamine treatment group and the scopolamine+test medicament treatment group. […] 0.5% Methylcellulose solution was used as a solvent of each compound.

Data set [4] in a line: Fluid retention as side effect: hematocrit level in high-fat diet obese diabetes mice. Conditions: for Hematocrit level: high-fat diet mouse; for Effect on hematocrit level in mice (summary of Example 5): dose not stated.
The conditions of data set [5]: post-marketing surveillance; cited from earlier work.
For data set [6] the following is noted: mouse, in vivo.
Where [7] appears, read: 3 mg/kg oral once a day for 8 weeks.
[8] abbreviates: 10 mg/kg oral once a day for 8 weeks.

On to `Cc1ccc(C(=O)c2cccn2C/C=C/c2ccc(COC(C)(C)C(=O)O)cc2)cc1` [Compound A, 2-Methyl-2-[(4-{(1E)-3-[2-(4-methylbenzoyl)-1H-pyrrol-1-yl]prop-1-en-1-yl}benzyl)oxy]propionic acid], for which the Kp in data set [1] came out at 0.154. Moreover, the half-life in data set [1] (brain) was 4.26 h; in data set [1] (plasma) it was 4.59 h. The AUC(0-t) in data set [1] (brain) turned out to be 1500 ng·h/mL; in data set [1] (plasma), 9710 ng·h/mL. Moreover, the “CD36 transcription level relative to GAPDH, ratio per DMSO control (=1)” value in the data set with scavenger receptor CD36 is given as 1.44. Besides, the Alternation behavior in data set [2] (10 mg/kg p.o.) is listed as 66.5 ± 2.8. The same compound yielded a Step-through latency in data set [3] (3 mg/kg p.o.) of 162.5 ± 28.2 s. Further, the “Effect on cognitive function (step-through latency)” value in data set [3] (single oral administration 3-30 mg/kg, scopolamine rat) is reported as “improved cognitive function in a dose-dependent manner”. Besides, the figures for the Hematocrit level in data set [4] (setting [7]), in data set [4] (setting [8]) and in data set [4] (30 mg/kg oral once a day for 8 weeks) were 47.7 ± 2.0%, 48.7 ± 1.2% and 48.7 ± 1.5%, respectively. Further, in data set [4], the “Effect on hematocrit level in mice (summary of Example 5)” value (from here on “Effect on hematocrit level in mice”) is reported as “did not significantly affect”.
With `CN(CCOc1ccc(CC2SC(=O)NC2=O)cc1)c1ccccn1` (stereo not drawn) [Rosiglitazone, rosiglitazone], the Kp in data set [1] was 0.0451. In addition, the half-life in data set [1] (brain) was 1.06 h; in data set [1] (plasma) it was 1.26 h. The AUC(0-t) in data set [1] (brain) stood at 1820 ng·h/mL; in data set [1] (plasma) it was 40400 ng·h/mL. Further, the Alternation behavior is 68.4 ± 5.0 in data set [2] (1 mg/kg p.o.), 71.9 ± 4.1 in data set [2] (3 mg/kg p.o.) and 73.4 ± 2.7 in data set [2] (10 mg/kg p.o.). For the same compound, the Step-through latency in data set [3] (1 mg/kg p.o.) stood at 144.8 ± 28.3 s; in data set [3] (3 mg/kg p.o.) it was 164.5 ± 33.1 s; in data set [3] (10 mg/kg p.o.) it was 170.7 ± 30.2 s. In data set [5], the “Frequency of fluid retention (peripheral edema)” value is “high”. The Hematocrit level in data set [4] (0.1 mg/kg oral once a day for 8 weeks) was 47.4 ± 1.9%; in data set [4] (0.3 mg/kg oral once a day for 8 weeks), 46.6 ± 1.9 %; in data set [4] (1 mg/kg oral once a day for 8 weeks), 45.6 ± 0.9 %; in data set [4] (setting [7]) it was 44.7 ± 1.5 %; in data set [4] (setting [8]) it was 41.1 ± 4.9 %. Further, in data set [4], the “Effect on hematocrit level in mice” value is recorded as “decreased”. Besides, the “Change of hematocrit level vs solvent” value in data set [4] (dose of 0.3 mg/kg or more, oral once a day for 8 weeks) is “significantly decreased”.
As to `CCc1ccc(CCOc2ccc(CC3SC(=O)NC3=O)cc2)nc1` (stereo not drawn) [pioglitazone], the “Effect on hematocrit level in mice” value in data set [6] is listed as “decreased”.
